Laboratory results published in paper PMC8081377 (Mutagenesis, 2021).
Read-outs that look alike come from different tables or passages of the source.

What was measured:
[1] = system: EpiDerm™ EPI-200-MNA skin tissues
[2] = system: EpiDerm™ EPI-200-MNA skin tissues; remark: listed apart in the source
[3] = % VCC or % BN, lab(s) as stated in the text
[4] = two treatments, vs solvent control
[5] = three treatments, vs solvent control
[6] = lack of excessive cytotoxicity, 48-h protocol

COc1cc2c(c(OC)c1OC)-c1ccc(OC)c(=O)cc1[C@@H](NC(C)=O)CC2 [Colchicine]
top/maximum dose tested, limited by excessive or strong cytotoxicity [1, 3]: 0.03 µg/cm^2 | classification in the RSMN assay by Lab A ([2]; overall call): positive | classification in the RSMN assay by Lab C ([2]; overall call): positive | % MN-BN response in individual experiment(s), Lab A, 48-h protocol [2, 4]: highly significant increases | % MN-BN response in individual experiment(s), Lab C, 48-h protocol [2, 4]: highly significant increases

C1CC2OC2CC1C1CO1 (centres unmarked) [4-Vinyl-1-cyclohexene diepoxide]
top/maximum dose tested, limited by excessive or strong cytotoxicity [1, 3]: 64 µg/cm^2 | classification in the RSMN assay by Lab A ([2]; overall call): positive | classification in the RSMN assay by Lab B ([2]; overall call): positive | classification in the RSMN assay by Lab C ([2]; overall call): positive | % MN-BN response in individual experiment(s), Lab C, 72-h protocol [2, 5]: equivocal response | % MN-BN response in individual experiment(s), Lab B, 48-h protocol [2, 4]: significant increase | % MN-BN response in individual experiment(s), Lab C, 48-h protocol [2, 4]: negative | % MN-BN response in individual experiment(s), Lab D, 48-h protocol [2, 4]: negative

COC(=O)C1=C(C)NC(C)=C(C(=O)OC)C1c1ccccc1[N+](=O)[O-] [Nifedipine]
classification in the RSMN assay by Lab A ([2]; overall call): negative

Oc1cccc2cccnc12 [8-Hydroxyquinoline]
top/maximum dose tested, limited by excessive or strong cytotoxicity ([1]; human): 48 µg/cm^2 | classification in the RSMN assay by Lab D [2]: negative

CCCCNC(=O)NS(=O)(=O)c1ccc(C)cc1 [Tolbutamide]
classification in the RSMN assay by Lab A ([2]; early Phase 2a only): positive | classification in the RSMN assay by Lab A ([2]; later Phase 2a testing only, expected outcome negative): correctly classified | classification in the RSMN assay by Lab B ([2]; overall call): negative | classification in the RSMN assay by Lab C ([2]; overall call): negative | % MN-BN response in individual experiment(s), Lab C, 48-h protocol [2, 4]: negative results

Cc1ccc(N)cc1N [2,4-Diaminotoluene (2,4-DAT), 2,4-Diaminotoluene]
top/maximum dose tested, limited by excessive or strong cytotoxicity [1, 3]: 700 µg/cm^2 | classification in the RSMN assay by Lab A ([2]; overall call): positive | classification in the RSMN assay by Lab B ([2]; overall call): negative | classification in the RSMN assay by Lab D ([2]; overall call): negative | % MN-BN response in individual experiment(s), Lab B, 72-h protocol [2, 5]: negative | % MN-BN response in individual experiment(s), Lab B, 48-h protocol [2, 4]: none of which caused a significant increase | % MN-BN response in individual experiment(s), Lab D, 48-h protocol [2, 4]: negative

CCCCCl [N-Butyl chloride]
% MN-BN response in individual experiment(s), Lab A, 72-h protocol [2]: negative results | % MN-BN response in individual experiment(s), Lab B, 48-h protocol [2]: no significant increases | % MN-BN response in individual experiment(s), Lab C, 48-h protocol [2]: no significant increase | % MN-BN response in individual experiment(s), Lab C, 72-h protocol [2]: no significant increase | % MN-BN response in individual experiment(s), Lab D, 48-h protocol [2]: no significant increases | classification in the RSMN assay by Lab A [2]: negative | classification in the RSMN assay by Lab B [2]: negative | classification in the RSMN assay by Lab C [2]: negative | classification in the RSMN assay by Lab D [2]: negative

Oc1ccc(Cl)cc1Cl [2,4-Dichlorophenol]
top/maximum dose tested, limited by excessive or strong cytotoxicity [1, 3]: 50 µg/cm^2 | classification in the RSMN assay by Lab A ([2]; overall call): negative | classification in the RSMN assay by Lab D ([2]; overall call): negative | % MN-BN response in individual experiment(s), Lab A, 48-h protocol [2, 4]: no statistically significant increases | % MN-BN response in individual experiment(s), Lab D, 48-h protocol [2, 4]: negative

O=c1[nH]cc(F)c(=O)[nH]1 [5-Fluorouracil]
% MN-BN response in individual experiment(s), Lab B, 48-h protocol [2]: negative results | % MN-BN response in individual experiment(s), Lab B, 72-h protocol [2]: negative results | classification in the RSMN assay by Lab A [2]: positive | classification in the RSMN assay by Lab B [2]: negative

OC[C@@H](O)[C@@H](O)[C@H](O)[C@H](O)CO [D-Mannitol]
maximum dose tested without exceeding the cytotoxicity thresholds [1, 6]: 1600 µg/cm^2 | classification in the RSMN assay by Lab B ([2]; overall call): negative | classification in the RSMN assay by Lab D ([2]; overall call): negative | % MN-BN response in individual experiment(s), Lab B, 48-h protocol [2, 4]: no significant increase | % MN-BN response in individual experiment(s), Lab D, 48-h protocol [2, 4]: no significant increase

O=[N+]([O-])c1cccc2ccccc12 [1-Nitronaphthalene]
top/maximum dose tested, limited by excessive or strong cytotoxicity [1, 3]: 50–80 µg/cm^2 | classification in the RSMN assay by Lab A [2]: negative

Oc1cccc(O)c1 [Resorcinol]
% MN-BN response in individual experiment(s), Lab B, 48-h protocol [2]: significant increase in % MN-BN at the highest dose tested | % MN-BN response in individual experiment(s), Lab B, 72-h protocol [2]: did not induce any statistically significant increase | classification in the RSMN assay by Lab B [2]: negative

O=C1CN(/N=C/c2ccc([N+](=O)[O-])o2)C(=O)N1 [Nitrofurantoin]
maximum dose tested without exceeding the cytotoxicity thresholds ([1]; human): 1600 µg/cm^2 | top/maximum dose tested, limited by excessive or strong cytotoxicity ([1]; human): 48 µg/cm^2 | classification in the RSMN assay by Lab B [2]: negative

CC(=O)O[C@H]1C(=O)[C@@]2(C)[C@H]([C@H](OC(=O)c3ccccc3)[C@]3(O)C[C@H](OC(=O)[C@H](O)[C@@H](NC(=O)c4ccccc4)c4ccccc4)C(C)=C1C3(C)C)[C@]1(OC(C)=O)CO[C@@H]1C[C@@H]2O [Taxol]
top/maximum dose tested, limited by excessive or strong cytotoxicity [1, 3]: 1.6 µg/cm^2 | classification in the RSMN assay by Lab C ([2]; overall call): positive | % MN-BN response in individual experiment(s), Lab C, 48-h protocol [2, 4]: clear and dose-dependent increase

COc1cc(/C=C/C(=O)CC(=O)/C=C/c2ccc(O)c(OC)c2)ccc1O [Curcumin]
top/maximum dose tested, limited by excessive or strong cytotoxicity [1, 3]: 160 µg/cm^2 | classification in the RSMN assay by Lab B ([2]; overall call): positive

COS(C)(=O)=O [Methyl methanesulfonate (MMS), Methyl methanesulfonate]
top/maximum dose tested, limited by excessive or strong cytotoxicity [1, 3]: 16 µg/cm^2 | classification in the RSMN assay by Lab B ([2]; overall call): positive

Oc1ccccc1 [Phenol]
% MN-BN response in individual experiment(s), Lab D, 48-h protocol [2]: significant increase in the % MN-BN was observed only at the highest dose tested | classification in the RSMN assay by Lab D [2]: negative

O=C(O)Cc1ccccc1Nc1c(Cl)cccc1Cl [Diclofenac]
top/maximum dose tested, limited by excessive or strong cytotoxicity [1, 3]: 50–80 µg/cm^2 | classification in the RSMN assay by Lab A ([2]; overall call): positive | classification in the RSMN assay by Lab B ([2]; overall call): positive | classification in the RSMN assay by Lab D ([2]; overall call): positive | apoptotic cells alongside the increase of micronuclei ([2]; reported by Lab A): strong increase of apoptotic cells | % MN-BN response in individual experiment(s), Lab A, 48-h protocol [2, 4]: significant increases

Cc1cn([C@H]2C[C@H](N=[N+]=[N-])[C@@H](CO)O2)c(=O)[nH]c1=O [Azidothymidine (AZT), Azidothymidine]
top/maximum dose tested, limited by excessive or strong cytotoxicity ([1]; human): 700 µg/cm^2 | classification in the RSMN assay by Lab A ([2]; overall call): positive | % MN-BN response in individual experiment(s), Lab A, 72-h protocol [2, 5]: significant increases | % MN-BN response in individual experiment(s), Lab A, 48-h protocol [2, 4]: significant increase

CCC(=O)OCC(=O)[C@@]1(OC(=O)CC)[C@@H](C)C[C@H]2[C@@H]3CCC4=CC(=O)C=C[C@]4(C)[C@@]3(Cl)[C@@H](O)C[C@@]21C [Beclomethasone dipropionate]
maximum dose tested without exceeding the cytotoxicity thresholds [1, 6]: 1600 µg/cm^2 | classification in the RSMN assay by Lab B ([2]; overall call): negative | % MN-BN response in individual experiment(s), Lab B, 48-h protocol [2, 4]: no significant increases

O=[N+]([O-])c1ccc(O)cc1 [4-Nitrophenol]
top/maximum dose tested, limited by excessive or strong cytotoxicity [1, 3]: 20–48 µg/cm^2 | classification in the RSMN assay by Lab A ([2]; overall call): negative | classification in the RSMN assay by Lab B ([2]; overall call): negative | classification in the RSMN assay by Lab C ([2]; overall call): negative | classification in the RSMN assay by Lab D ([2]; overall call): negative | % MN-BN response in individual experiment(s), Lab A, 72-h protocol [2, 5]: negative | % MN-BN response in individual experiment(s), Lab C, 72-h protocol [2, 5]: negative | % MN-BN response in individual experiment(s), Lab A, 48-h protocol [2, 4]: negative | % MN-BN response in individual experiment(s), Lab B, 48-h protocol [2, 4]: did not find any evidence for an increase | % MN-BN response in individual experiment(s), Lab C, 48-h protocol [2, 4]: negative | % MN-BN response in individual experiment(s), Lab D, 48-h protocol [2, 4]: did not find any evidence for an increase

OCC(Br)CBr (centres unmarked) [2,3-Dibromo-1-propanol]
top/maximum dose tested, limited by excessive or strong cytotoxicity [1, 3]: 500–600 µg/cm^2 | classification in the RSMN assay by Lab A ([2]; overall call): positive

Cc1c(N)cccc1N [2,6-Diaminotoluene (2,6-DAT), 2,6-Diaminotoluene]
top/maximum dose tested, limited by excessive or strong cytotoxicity [1, 3]: 350 µg/cm^2 | classification in the RSMN assay by Lab D [2]: negative

c1ccc2c(c1)ccc1ccccc12 [Phenanthrene]
top dose, limited by precipitation on the surface of the skin tissues ([1]; lab(s) as stated in the text): 200–400 µg/cm^2 | doses at which precipitation was seen ([1]; second 48-h experiment, Lab A): ≥ 400 µg/cm^2 | % MN-BN response in individual experiment(s), Lab B, 48-h protocol [2]: negative | % MN-BN response in individual experiment(s), Lab B, 72-h protocol [2]: no evidence for an increase | % MN-BN response in individual experiment(s), Lab C, 48-h protocol [2]: negative | % MN-BN response in individual experiment(s), Lab D, 48-h protocol [2]: negative | classification in the RSMN assay by Lab A [2]: positive | classification in the RSMN assay by Lab B [2]: negative | classification in the RSMN assay by Lab C [2]: negative | classification in the RSMN assay by Lab D [2]: negative

COc1cc([C@@H]2c3cc4c(cc3[C@@H](O[C@@H]3O[C@@H]5CO[C@@H](C)O[C@H]5[C@H](O)[C@H]3O)[C@H]3COC(=O)[C@H]23)OCO4)cc(OC)c1O [Etoposide]
top/maximum dose tested, limited by excessive or strong cytotoxicity [1, 3]: 1.6 µg/cm^2
